Measurements taken from US7767398B2, “Means and methods for diagnosing and treating affective disorders” (Affectis Pharmaceuticals AG, priority 2003, dated 2010).

Tested on: mice
Assay: Porsolt's forced swim test
Assay type: in vivo, mouse
Details: 50 μM BzATP, 1 μl each side intrahippocampal, 24 hours after injection, DBA/2OIa mice
Experimental: Further validation of role of P2X7R in affective disorders was performed by examining its expression pattern in response to stress and treatment with antidepressant drugs. […] In parallel, a control group of mice was given vehicle solution (i.e. without paroxetine) using the same treatment regiment while a second control group of mice was left undisturbed and stress-free (i.e. untreated) during the same period of the experiments. At the end of the long-term treatment, part of the mice of each experimental group were tested in the dark/light box (test of anxiety behaviour) and in the Porsolt's forced swim test (test of depressive-like behaviour) to confirm the effectiveness of the treatment (FIG. 5). […] The other part of the experimental groups (i.e. mice without test experience) were decapitated, brains rapidly removed and frozen at −80° C. until usage.
The effects of P2X7R inhibition on depressive-like behaviour was assessed 24 hours and 48 hours after infusion of siRNA, control or vehicle according to the standard test paradigm, the Porsolt's forced swim test (Porsolt et al., Arch. Int. Pharmacodym. 229 (1977), 327-336; Porsolt, Rev. Neurosci. 11 (2000), 53-58). […] Compared to vehicle application, no influence of control double stranded RNA (5′-[…]-3′) on floating behaviour (passive stress coping) was detected. […] This interpretation becomes moreover evident when the effects of antidepressants on passive stress coping behaviour in the forced swim test are visualized (FIG. 5). Passive stress coping behaviour increased after acute intrahippocampal injection (bilateral, dentate gyrus) of siRNA targeting P2X7R. The Porsolt's forced swim test is a standard test used to assess the effectiveness of antidepressants and it has been proven by many studies that the test is selectively sensitive for these effects, given that the right animal model is used. The paradigm has been widely used to test pharmaceutical compounds and to validate animal models of depression, which show an increase in passive behaviour as do the mice where P2X7R has been inhibited (siRNA).
The forced swim test is a standard test that measures primary stress-induced reductions in avoidance or escape, termed behavioural despair. The test is used to determine the effectiveness of antidepressants, test new pharmaceutical compounds and validate animal models of depression (Porsolt et al., Arch. Int. Pharmacodym. 229 (1977), 327-336; Porsolt, Rev. Neurosci. 11 (2000), 53-58; Rénéric et al., Behav. Brain Res. 136 (2002), 521-532; Page et al., Psychopharmacology 165 (2003), 194-201; Kelliher et al., Psychoneuroendocrinology 28 (2003), 332-347). The test consists of placing a mouse for a period of 5 minutes into a glass cylinder containing water. Under such circumstances, the mouse cannot touch the bottom of the cylinder and is thus forced to swim. Time, latency and frequency of struggling versus floating are scored as behavioural parameters. […] Increased struggling (i.e. active attempts to escape) indicates active coping behaviour that can be interpreted as an improvement of depression-like symptoms. For example, treatment with serotonergic antidepressants reduce the total time spent floating (Borsini, Neurosci. Biobehav. Rev. 19 (1995), 377-395; Redrobe and Bourin, Psychopharmacology 138 (1998), 198-206, and in parallel increases the time of active behaviour (i.e. swimming or struggling; Lucki et al., Psychopharmacology 155 (2001), 315-322).
The behaviour of individual mice was assessed using the Porsolt's forced swim test 24 hours after injection of vehicle solution, KN-62, or oATP. A pre-exposure of 5 minutes to the test was performed 15-17 minutes after administration of vehicle, KN-62, or oATP. A description of the Porsolt's forced swim test is given in example 9. […]

2′-3′-O-(4-Benzoylbenzoyl)adenosine 5′-triphosphate [BzATP]
passive behaviour (time, frequency, latency of floating) in the forced swim test (latency and frequency of floating statistically significant): decrease | active escape attempts (time, frequency, latency of struggling) in the forced swim test (time struggling statistically significant): increase
